Values quoted from earlier work, collected in publication PMC10017685 (Nature Communications, 2023).

Test system: human erythrocytes
Parameters: method as in DBAASP
Details: cited from earlier work

KWCFRVCYRGICYRRCR [DBAASP_2229] and GFCWRACVYRNGVRVCYRRCN [DBAASP_17226] are the same in “Class (dedicated toxicity dataset used for toxicity classifier evaluation)” value (“Class” for short): 0 for the first, 0 for the second.

RRGCFRVCYRGFCFQRCR [DBAASP_12233] and GILSSLWKKLKKIIAK [DBAASP_8913] are the same in “Class” value: 0 for the first, 0 for the second.

Same assay, conditions: toxicity class label 1 or 0, meaning of the labels not given; DBAASP HC50 data, human erythrocytes; ref DBAASP; cited from earlier work

GLLKAIKTLL [DBAASP_3121] and GKLGPLLKIAAKVGSKLL [DBAASP_11238] are the same in “Class” value: 0 for the first, 0 for the second.

FVDLKKIANIINSIF [DBAASP_6701] and KQIKIWFQNKKMKWKK [DBAASP_8799] are the same in “Class” value: 0 for the first, 0 for the second.

First: FFGKVLKLIRKIF [DBAASP_2255]
Second: IKKILSKIKKLLK [DBAASP_7154]
The “Class” value of the first is higher: 1 for the first, 0 for the second.

AFALIAGALYRIFHRR [DBAASP_16955] and ILPILGNLLNSLL [DBAASP_3403] are the same in “Class” value: 0 for the first, 0 for the second.

GIKDWIKGAAKKLIKTVASHIANQ [DBAASP_2305] and FPFLLSLIPSAISALKKL [DBAASP_18191] are the same in “Class” value: 0 for the first, 0 for the second.

FFFFKKKKK [DBAASP_15834] and IFGAILPLALGALKNLIK [DBAASP_3892] are the same in “Class” value: 1 for the first, 1 for the second.

HFLGTKVNLAKKIL [DBAASP_5020] and ITEVITILLNRLTDRLEK [DBAASP_13425] are the same in “Class” value: 0 for the first, 0 for the second.

KKYLLPIVGNLLKSLL [DBAASP_7638] and AVDLAKIANKVLSSLF [DBAASP_2207] are the same in “Class” value: 0 for the first, 0 for the second.

KLLKFIKTLL [DBAASP_3151] and WKKWWKKWWKKW [DBAASP_10848] are the same in “Class” value: 0 for the first, 0 for the second.

First: FLPLIAGVAASILPKIFCFITKKC [DBAASP_6170]
Second: GIWSSLLKKLKKIIAK [DBAASP_8911]
The “Class” value of the first is higher: 1 for the first, 0 for the second.

Compared with FFHHIFRGIVHIGKTIHRLVTG [DBAASP_9010], VKKFAWWWAFLKK [DBAASP_11303] is lower in “Class” value: 1 for the first, 0 for the second.

First: GLLRASSVWGRKYYVDLAGCAKA [DBAASP_1639]
Second: GFKDLLKGAAKALVKAVLF [DBAASP_4918]
The “Class” value of the first is lower: 0 for the first, 1 for the second.

FKRIVQRIKDFLR [DBAASP_3393] and FFRLLFHGVHHGGGYLNAA [DBAASP_1428] are the same in “Class” value: 0 for the first, 0 for the second.

GLFDIWKWWRWRR [DBAASP_10052] and LALKSGGWLRLFGLKDKKH [DBAASP_6706] are the same in “Class” value: 0 for the first, 0 for the second.

GIMSSLMKKLAKIIAK [DBAASP_8900] and FLPGILKVAAK [DBAASP_16464] are the same in “Class” value: 0 for the first, 0 for the second.

IPPFIKKVLTTVF [DBAASP_3483] and GIMSSLMKKLAKHIAK [DBAASP_8895] are the same in “Class” value: 0 for the first, 0 for the second.

GKLGPLLKIAAKVGSNLL [DBAASP_11237] and FPVTWGWWKWWKG [DBAASP_9714] are the same in “Class” value: 0 for the first, 0 for the second.

SFLTTVKKLVTNLAAL [DBAASP_13626] and KIAKGALKALKIAKGALKAL [DBAASP_11229] are the same in “Class” value: 0 for the first, 0 for the second.

IKKIIKKI [DBAASP_10843] and FLPAVLKVAAHILPTAICAISRRC [DBAASP_5694] are the same in “Class” value: 0 for the first, 0 for the second.

First: GLFDVIKKLLKKIKGL [DBAASP_8594]
Second: GVVKRIKTVV [DBAASP_8620]
The “Class” value of the first is higher: 1 for the first, 0 for the second.

FLQGIIDTVGKWL [DBAASP_18165] and FLIGMTQGLICLITRKC [DBAASP_1477] are the same in “Class” value: 0 for the first, 0 for the second.

First: GLFDVIKKVASVIGGL [DBAASP_1320]
Second: GFKDLLKKAAKALVKTVLF [DBAASP_4906]
The “Class” value of the first is lower: 0 for the first, 1 for the second.

FLPILASLAAKLGPKLFCLVTKKC [DBAASP_3537] and KKKKKKKKKGGGLLALLALLA [DBAASP_13727] are the same in “Class” value: 1 for the first, 1 for the second.

WIRRIKKWIRRVHK [DBAASP_10626] and CAKAKAKAGSGAKAKAKAC [DBAASP_351] are the same in “Class” value: 0 for the first, 0 for the second.

FLPIVTNLLSGLL [DBAASP_2205] and ILPFKFPFFPFRR [DBAASP_4761] are the same in “Class” value: 0 for the first, 0 for the second.

Going from IFGAIWPLALGALKNLIK [DBAASP_9405] to KLFKKLFK [DBAASP_17848], the “Class” value falls from 1 to 0.

KFKKVIWKSFL [DBAASP_13719] and KLLKVIKKLL [DBAASP_3153] are the same in “Class” value: 0 for the first, 0 for the second.

FLPIIAGMAAKVICAITKKC [DBAASP_4210] and LPFFLLSLIPSAISAIKKI [DBAASP_8437] are the same in “Class” value: 1 for the first, 1 for the second.

GLFGKILGVGKKVLCGLSGMC [DBAASP_2198] and KFLGTLVNLAKKIL [DBAASP_5014] are the same in “Class” value: 0 for the first, 0 for the second.

GIGKHVGKALKGLKGLLKGLGES [DBAASP_3359] and FPVTWPTKWWKS [DBAASP_9716] are the same in “Class” value: 0 for the first, 0 for the second.

VKRWKKWKRKWKKWV [DBAASP_16448] and GLLKRIKT [DBAASP_13874] are the same in “Class” value: 0 for the first, 0 for the second.

Compared with GIGKHVGKALKGLKGLLKGLGEC [DBAASP_6804], LWKIGKKIWRVLWNWR [DBAASP_17519] is higher in “Class” value: 0 for the first, 1 for the second.

GWKKWFTKGERLSQRHFA [DBAASP_1000] and SKVGRHLRRFGHRAHRKL [DBAASP_7663] are the same in “Class” value: 0 for the first, 0 for the second.

GIMISLMKKLAAHIAK [DBAASP_8898] and WWWRRRIW [DBAASP_10633] are the same in “Class” value: 0 for the first, 0 for the second.

First: ILPIRSLIKKLL [DBAASP_5721]
Second: FLGSLFSIGSKLLPGVIKLFQRKKQ [DBAASP_17526]
The “Class” value of the first is lower: 0 for the first, 1 for the second.

FLPLIAGVAANFLPKIFCLISKKC [DBAASP_6168] and TIAMRAINNYRWRSKNQNTFLR [DBAASP_6544] are the same in “Class” value: 1 for the first, 1 for the second.

FWGFLGKLAMKAVPSLIGGNKSSSK [DBAASP_8439] and GIIKKIIKKIIKK [DBAASP_13882] are the same in “Class” value: 0 for the first, 0 for the second.

GLFDIWAWWRWRR [DBAASP_10051] and GILNTIKSIASKLKRKAK [DBAASP_5477] are the same in “Class” value: 0 for the first, 0 for the second.

VRRFPWWAPFLRR [DBAASP_14267] and LLGMIPLAISAISALSKL [DBAASP_3893] are the same in “Class” value: 0 for the first, 0 for the second.

VKWRWKKWRWKWKWKV [DBAASP_8776] and GFRDVLKGAAKAFVKTVAGHIAN [DBAASP_2304] are the same in “Class” value: 0 for the first, 0 for the second.

GVGKFLHSAKKFGQALASEIMKS [DBAASP_3769] and KLLKRIKKLL [DBAASP_3152] are the same in “Class” value: 0 for the first, 0 for the second.

GLLKLIKTLL [DBAASP_3136] and FLPLLLAGLPKLLCLFFKKC [DBAASP_1470] are the same in “Class” value: 1 for the first, 1 for the second.

In the case of FLGALIKGAIHGGRFIHGMIQNHH [DBAASP_1413], the “Class” value is given as 0.
